For assay [1], the target named is T1, Oxytocin receptor (Homo sapiens) (UniProt P30559).
T1 sequence (whole entry): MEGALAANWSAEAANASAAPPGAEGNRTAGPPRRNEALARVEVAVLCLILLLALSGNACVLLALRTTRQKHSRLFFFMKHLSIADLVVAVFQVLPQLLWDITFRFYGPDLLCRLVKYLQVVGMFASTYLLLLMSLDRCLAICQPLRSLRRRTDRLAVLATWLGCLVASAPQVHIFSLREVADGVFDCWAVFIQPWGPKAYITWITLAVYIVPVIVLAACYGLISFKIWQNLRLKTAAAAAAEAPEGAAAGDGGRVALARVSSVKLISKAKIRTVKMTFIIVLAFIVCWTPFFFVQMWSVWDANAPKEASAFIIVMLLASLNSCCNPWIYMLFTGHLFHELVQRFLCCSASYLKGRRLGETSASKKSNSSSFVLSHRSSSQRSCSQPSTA
Put plainly: Activity at OT receptor assessed as oxytocic activity in absence of magnesium. To be noted: filed as agonist. In kind it is functional.

The species named for assay [2] is Rattus norvegicus. Nature of the assay: Antidiuretic activity in rat. In kind it is functional, Urine.
Assay [3] is filed under the species Rattus norvegicus. Nature of the assay: Vasopressor activity in rat. In kind it is functional.
The next assay concerns the target Vasopressin V1a receptor (Rattus norvegicus, UniProt P30560). Nature of the assay: Displacement of [3H]AVP from vasopressin V1a receptor in rat liver membrane. The format is cell membranes. (In general: Loss of bound radioactivity is the signal in a displacement assay; it reports binding, not function.)
The next assay has as its target Vasopressin V2 receptor (Rattus norvegicus, UniProt Q00788). Put plainly: Displacement of [3H]AVP from vasopressin V2 receptor in rat kidney membranes. In kind it is cell membranes, Membrane.

Positions of bridges follow the written chain, without caps; N, C: chain ends. Non-standard residues stand in square brackets, D forms with d. Residues, ends and D or L forms follow the SMILES beside them. Orn = NCCC[C@H](N)C(=O)O; Dab = NCC[C@H](N)C(=O)O; Dap = NC[C@H](N)C(=O)O; Mpa = O=C(O)CCS

Vasopressin V1a receptor, sequence (P30560 whole entry): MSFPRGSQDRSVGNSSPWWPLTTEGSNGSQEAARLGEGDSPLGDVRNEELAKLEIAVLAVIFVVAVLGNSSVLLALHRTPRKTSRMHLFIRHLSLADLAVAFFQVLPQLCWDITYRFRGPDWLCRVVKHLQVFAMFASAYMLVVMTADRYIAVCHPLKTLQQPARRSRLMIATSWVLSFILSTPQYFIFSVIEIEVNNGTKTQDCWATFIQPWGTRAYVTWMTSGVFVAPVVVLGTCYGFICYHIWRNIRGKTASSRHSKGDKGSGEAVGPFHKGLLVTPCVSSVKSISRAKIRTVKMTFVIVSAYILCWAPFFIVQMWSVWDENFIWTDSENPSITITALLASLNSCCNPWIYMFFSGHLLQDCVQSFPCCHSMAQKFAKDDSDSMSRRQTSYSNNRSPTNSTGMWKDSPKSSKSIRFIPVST
Vasopressin V2 receptor, sequence (Q00788 whole entry): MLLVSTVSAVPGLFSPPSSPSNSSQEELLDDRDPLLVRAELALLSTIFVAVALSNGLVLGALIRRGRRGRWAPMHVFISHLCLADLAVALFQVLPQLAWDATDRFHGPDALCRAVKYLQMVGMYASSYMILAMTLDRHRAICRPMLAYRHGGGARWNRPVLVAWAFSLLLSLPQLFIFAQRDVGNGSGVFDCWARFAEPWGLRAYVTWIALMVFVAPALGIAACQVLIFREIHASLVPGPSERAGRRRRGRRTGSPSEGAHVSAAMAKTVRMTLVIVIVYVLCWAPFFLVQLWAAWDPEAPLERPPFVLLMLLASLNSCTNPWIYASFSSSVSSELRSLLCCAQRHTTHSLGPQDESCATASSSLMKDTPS

As for `NCCCC[C@H](NC(=O)[C@@H]1CCCN1C(=O)[C@@H]1CSSCCC(=O)N[C@@H](Cc2ccc(O)cc2)C(=O)N[C@@H](Cc2ccccc2)C(=O)N[C@@H](CCC(N)=O)C(=O)N[C@@H](CC(N)=O)C(=O)N1)C(=O)NCC(N)=O`, the results for the Activity (in assay [1]; in the assay filed under Rattus norvegicus [2]; in the assay filed under Rattus norvegicus [3]) were 12 U/mg, 550 U/mg and 145 U/mg, respectively.
On the same counts, the results for `NCCC[C@H](NC(=O)[C@@H]1CCCN1C(=O)[C@@H]1CSSCCC(=O)N[C@@H](Cc2ccc(O)cc2)C(=O)N[C@@H](Cc2ccccc2)C(=O)N[C@@H](CCC(N)=O)C(=O)N[C@@H](CC(N)=O)C(=O)N1)C(=O)NCC(N)=O` are 15 U/mg, 486 U/mg and 355 U/mg.
By Ki is commonly meant a measure of affinity in units of concentration, obtained from inhibition or displacement. For the compound `N=C(N)NCCC[C@H](NC(=O)[C@@H]1CCCN1C(=O)[C@@H]1CSSCCC(=O)N[C@H](Cc2cccnc2)C(=O)N[C@@H](Cc2ccccc2)C(=O)N[C@@H](CCC(N)=O)C(=O)N[C@@H](CC(N)=O)C(=O)N1)C(=O)NCC(N)=O`, the results for the Ki on Vasopressin V1a receptor and at Vasopressin V2 receptor were 450 nM (antagonist) and 69 nM (antagonist), respectively. Besides, the values for the Activity in the assay filed under Rattus norvegicus [2] and in the assay listed under Rattus norvegicus [3] (filed as antagonist) were 1 U/mg and “Antagonist”, respectively.
With `CC(C)C[C@@H]1NC(=O)[C@H](Cc2ccccc2)NC(=O)[C@H](Cc2ccc(O)cc2)NC(=O)CCSSC[C@@H](C(=O)N2CCC[C@H]2C(=O)N[C@@H](CCCN=C(N)N)C(=O)NCC(N)=O)NC(=O)[C@H](CC(N)=O)NC1=O` ([Mpa]YFLNCPRG-NH2; disulfide 1-6), the Ki was 1250 nM (antagonist) at Vasopressin V1a receptor and 3.1 nM (antagonist) on Vasopressin V2 receptor.
Consider `CC(C)C[C@@H]1NC(=O)[C@H](Cc2ccccc2)NC(=O)[C@H](Cc2ccc(O)cc2)NC(=O)CCSSC[C@@H](C(=O)N2CCC[C@H]2C(=O)N[C@@H](CCCNC(=N)N)C(=O)NCC(N)=O)NC(=O)[C@H](CC(N)=O)NC1=O` ([Mpa]YFLNCPRG-NH2; disulfide 1-6), for which the Activity was 0.67 U/mg in assay [1], 378 U/mg in the assay filed under Rattus norvegicus [2] and 3.11 U/mg in the assay filed under Rattus norvegicus [3].
Regarding `CC(C)C[C@@H]1NC(=O)[C@H](Cc2ccccc2)NC(=O)[C@H](Cc2ccc(O)cc2)NC(=O)CCSSC[C@@H](C(=O)N2CCC[C@H]2C(=O)N[C@@H](CCCN)C(=O)NCC(N)=O)NC(=O)[C@H](CC(N)=O)NC1=O` ([Mpa]YFLNCP[Orn]G-NH2; disulfide 1-6), the Ki at Vasopressin V1a receptor is 1400 nM (antagonist); on Vasopressin V2 receptor it was 425 nM (antagonist). The results for the Activity in the assay listed under Rattus norvegicus [2] and in the assay filed under Rattus norvegicus [3] were 5.7 U/mg and 3.1 U/mg, respectively.
With `NCC[C@H](NC(=O)[C@@H]1CCCN1C(=O)[C@@H]1CSSCCC(=O)N[C@@H](Cc2ccc(O)cc2)C(=O)N[C@@H](Cc2ccccc2)C(=O)N[C@@H](CCC(N)=O)C(=O)N[C@@H](CC(N)=O)C(=O)N1)C(=O)NCC(N)=O` ([Mpa]YFQNCP[Dab]G-NH2; disulfide 1-6), the Activity in assay [1] was 25 U/mg; in the assay filed under Rattus norvegicus [2] it was 463 U/mg; in the assay listed under Rattus norvegicus [3] it was 385 U/mg.
In the same order, the values of `NC[C@H](NC(=O)[C@@H]1CCCN1C(=O)[C@@H]1CSSCCC(=O)N[C@@H](Cc2ccc(O)cc2)C(=O)N[C@@H](Cc2ccccc2)C(=O)N[C@@H](CCC(N)=O)C(=O)N[C@@H](CC(N)=O)C(=O)N1)C(=O)NCC(N)=O` ([Mpa]YFQNCP[Dap]G-NH2; disulfide 1-6) are 0.9 U/mg, 165 U/mg and 8.7 U/mg.
As for `N=C(N)NCCC[C@@H]1NC(=O)[C@H](Cc2ccccc2)NC(=O)[C@H](Cc2ccc(O)cc2)NC(=O)CCSSC[C@@H](C(=O)N2CCC[C@H]2C(=O)N[C@@H](CCCN=C(N)N)C(=O)NCC(N)=O)NC(=O)[C@H](CC(N)=O)NC1=O` ([Mpa]YFRNCPRG-NH2; disulfide 1-6), the Ki on Vasopressin V1a receptor is on record as 12.9 nM (antagonist); at Vasopressin V2 receptor it was 0.2 nM (antagonist).
For the compound `NC(=O)CNC(=O)[C@H](CCCN=C(N)N)NC(=O)[C@@H]1CCCN1C(=O)[C@@H]1CSSCCC(=O)N[C@@H](Cc2ccc(O)cc2)C(=O)N[C@@H](Cc2ccccc2)C(=O)N[C@@H](CCCN=C(N)N)C(=O)N[C@@H](CC(N)=O)C(=O)N1` ([Mpa]YFRNCPRG-NH2; disulfide 1-6), the values for the Activity in the assay listed under Rattus norvegicus [2] and in the assay listed under Rattus norvegicus [3] were 748.32 U/mg and 159.93 U/mg, respectively.
Take `CC(C)[C@@H]1NC(=O)[C@H](Cc2ccccc2)NC(=O)[C@H](Cc2ccc(O)cc2)NC(=O)CCSSC[C@@H](C(=O)N2CCC[C@H]2C(=O)N[C@@H](CCCN=C(N)N)C(=O)NCC(N)=O)NC(=O)[C@H](CC(N)=O)NC1=O` ([Mpa]YFVNCPRG-NH2; disulfide 1-6): the inhibition constant (Ki) is 60 nM (antagonist) at Vasopressin V1a receptor and 0.3 nM (antagonist) at Vasopressin V2 receptor.
With `CC(C)[C@@H]1NC(=O)[C@H](Cc2ccccc2)NC(=O)[C@H](Cc2ccc(O)cc2)NC(=O)CCSSC[C@@H](C(=O)N2CCC[C@H]2C(=O)N[C@@H](CCCNC(=N)N)C(=O)NCC(N)=O)NC(=O)[C@H](CC(N)=O)NC1=O` ([Mpa]YFVNCPRG-NH2; disulfide 1-6), the Activity in the assay filed under Rattus norvegicus [2] came out at 1150 U/mg; in the assay filed under Rattus norvegicus [3] it was 51 U/mg.
Consider `CC(C)[C@@H]1NC(=O)[C@H](Cc2ccccc2)NC(=O)[C@H](Cc2ccc(O)cc2)NC(=O)CCSSC[C@@H](C(=O)N2CCC[C@H]2C(=O)N[C@H](CCCNC(=N)N)C(=O)NCC(N)=O)NC(=O)[C@H](CC(N)=O)NC1=O` ([Mpa]YFVNCP[dR]G-NH2; disulfide 1-6), for which the Ki on Vasopressin V1a receptor was 316 nM (antagonist); on Vasopressin V2 receptor it was 0.26 nM (antagonist). Also, the Activity in the assay listed under Rattus norvegicus [2] is on record as 1230 U/mg; in the assay filed under Rattus norvegicus [3], less than 0.01 U/mg.
Turning to `NCCC[C@@H]1NC(=O)[C@H](Cc2ccccc2)NC(=O)[C@H](Cc2ccc(O)cc2)NC(=O)CCSSC[C@@H](C(=O)N2CCC[C@H]2C(=O)N[C@@H](CCCN=C(N)N)C(=O)NCC(N)=O)NC(=O)[C@H](CC(N)=O)NC1=O` ([Mpa]YF[Orn]NCPRG-NH2; disulfide 1-6), the Ki on Vasopressin V1a receptor is 900 nM (antagonist); at Vasopressin V2 receptor it was 3.4 nM (antagonist). Moreover, the values for the Activity in the assay listed under Rattus norvegicus [2] and in the assay listed under Rattus norvegicus [3] were 260.32 U/mg and 1.54 U/mg, respectively.
Turning to `N=C(N)NCCC[C@@H](NC(=O)[C@@H]1CCCN1C(=O)[C@@H]1CSSCCC(=O)N[C@@H](Cc2ccc(O)cc2)C(=O)N[C@@H](Cc2ccccc2)C(=O)N[C@@H](CCC(N)=O)C(=O)N[C@@H](CC(N)=O)C(=O)N1)C(=O)NCC(N)=O` (stereo in doubt; form 1) [DESMOPRESSIN], the Activity in the assay filed under Rattus norvegicus [2] is 1745 U/mg; in the assay filed under Rattus norvegicus [3] it was 346 U/mg. At Vasopressin V2 receptor, the inhibition constant (Ki) is 0.8 nM (antagonist).
For `N=C(N)NCCC[C@@H](NC(=O)[C@@H]1CCCN1C(=O)[C@@H]1CSSCCC(=O)N[C@@H](Cc2ccc(O)cc2)C(=O)N[C@@H](Cc2ccccc2)C(=O)N[C@@H](CCC(N)=O)C(=O)N[C@@H](CC(N)=O)C(=O)N1)C(=O)NCC(N)=O` (stereo in doubt; form 2) [DESMOPRESSIN], the Activity in the assay filed under Rattus norvegicus [2] stood at 1200 U/mg; in the assay filed under Rattus norvegicus [3] it was 0.39 U/mg. In addition, the Ki on Vasopressin V2 receptor is given as 0.3 nM (antagonist).

These data come from ChEMBL document CHEMBL1141418 (J Med Chem, 2007).
